Source: patent US8569378B2, “p27 protein inducer” (Chugai Seiyaku Kabushiki Kaisha, priority 2007, dated 2013)

What was measured:
[1] = test system: p27 protein; experiment: Quantification of p27 protein by ELISA (p27 protein-inducing activity, EC50); type: cell-based, human; settings: NCI-H460 cells, 48 hours, p27 sandwich ELISA; Table 1-2
Procedure: The p27 protein-inducing activities of the compounds or salts listed in Tables 1-1, 1-2 and 2 below were measured as follows.
(§1) Preparation of Cell Lysate:
NCI-H460 human non-small cell lung cancer cells (ATCC HTB-177) were plated in 6-well plates at 2×10^5 cells/well and incubated overnight. Then, the test substance was added to the medium to a final concentration of 10000 nmol/L, 3000 nmol/L, 100 nmol/L, 30 nmol/L, 10 nmol/L, 3 nmol/L, 1 nmol/L, 0.3 nmol/L, 0.1 nmol/L, 0.03 nmol/L or 0.01 nmol/L and the cells were incubated at 37° C. in 5% CO2 for 48 hours. 150 μL of Cell Lysis Buffer (catalog no. 9803, Cell Signaling) which had been diluted to 1-fold concentration (1 mM PMSF was added immediately before use) was added, and the mixture was allowed to stand on ice for 10 minutes. The Cell Lysis Buffer in which cells were lysed was collected together with cells with a scraper and transferred to a new tube. It was centrifuged at 15000 rpm for 10 minutes at 4° C. and the supernatant was then transferred to a new tube.
Quantification by Sandwich ELISA:
Anti-p27 monoclonal antibody (catalog no. 71-9600, Zymed) was diluted to 5 μg/mL in 50 mM carbonate coating buffer (0.4 g/L NaCO3, 0.73 g/L NaHCO3 and 0.04 g/L NaN3 in distilled water), and it was then added at 50 μL/well and allowed to stand overnight at 4° C. to bind the antibody. After washing three times with PBS, 200 μL of blocking solution (0.2% I-Block in PBS) was added to each well. After 1 hour of incubation at room temperature, washing with PBS-T (0.05% Tween 20 in PBS) was performed three times. The sample and recombinant p27 protein standard were serially diluted in Cell Lysis Buffer (catalog no. 9803, Cell Signaling) which had been diluted to 1-fold concentration (1 mM PMSF was added immediately before use), and it was then added at 100 μL/well. After 1 hour of incubation at room temperature, washing with 200 μL of PBS-T was performed three times. HRP-labeled anti-p27 antibody (product no. 610243, BD Transdution Laboratories) was diluted 1:2500 (i.e. to 0.1 μg/mL) in 0.2% I-Block/0.05% PBS-T, and it was then added at 100 μL/well. After 1 hour of incubation at room temperature, washing with 200 μL of PBS-T was performed three times. Chromogenic substrate solution (TMB One Solution, catalog no. G7431, Promega) was added at 100 μL/well and allowed to develop a color reaction at room temperature. After stopping the reaction with 50 μL of 1N H2SO4, the absorbance at 450 nm was measured.
Calculation of EC50 Values:
A standard response curve was generated by plotting the amount of p27 protein against the concentration of the test substance. The basal level of response was defined as 0%, while the plateau level where the induction of p27 protein had been maximized was defined as 100%. Finally, the test substance concentration at which 50% induction was achieved was calculated, and it was defined as EC50.

[2] = test system: p27 protein; experiment: Detection of p27 protein by Western blotting in NCI-H460 cell lysate; type: cell-based, human; settings: NCI-H460 cells; 0.3-30 μmol/L; KIP-10 48 hours, KIP-12 24 hours; FIGS. 1 and 3
Procedure: (§2) The p27 protein-inducing activities of KIP-10 (the compound represented by formula (C)) and KIP-12 (the compound represented by formula (D)) were measured as follows.
as §1
(§3) NCI-H460 human non-small cell lung cancer cells (ATCC HTB-177), DU-145 human prostate cancer cells (ATCC HTB-81) or HCT116 human colon cancer cells (ATCC CCL-247) were plated in 6-well plates at 2×10^5 cells/well and incubated overnight. Then, the test substance was added to the medium to a final concentration of 0.3 μmol/L, 1 μmol/L, 3 μmol/L, 10 μmol/L or 30 μmol/L or was not added and the cells were incubated at 37° C. in 5% CO2 for 48 or 24 hours. The cells were washed with cold PBS(−), which was then completely removed. 0.35 mL of Cell Lysis Buffer (catalog no. 9803, Cell Signaling) which had been diluted to 1-fold concentration was added, and the mixture was allowed to stand on ice for 10 minutes. The Cell Lysis Buffer in which cells were lysed was collected together with cells and subjected to sonication (speed 1, duty 80) for 10 seconds. […]
(§4) The total protein concentration in the supernatant was determined with a DC Protein Kit (catalog no. 500-0122, Bio-Rad). […] After washing three times with TBS-T, it was immersed in ECL kit reagent (catalog no. RPN2132, Amersham) for 1 minute and the band was detected with a chemiluminescence reader. […]

[3] = test system: p27 protein; experiment: Detection of p27 protein by Western blotting in DU-145 cell lysate; type: cell-based; settings: DU-145 human prostate cancer cells; 0.3-30 μmol/L; 48 hours; FIG. 2
Procedure: as §2, §1, §3, §4

[4] = test system: p27 protein; experiment: Detection of p27 protein by Western blotting in HCT116 cell lysate; type: cell-based; settings: HCT116 human colon cancer cells; 0.3-30 μmol/L; 24 hours; FIG. 4
Procedure: as §2, §1, §3, §4

Structure (SMILES) | EC50 [1] | p27 protein-inducing activity (Western blotting) [2] | p27 protein-inducing activity (Western blotting) [3] | p27 protein-inducing activity (Western blotting) [4]
Cc1c(Cc2ccccc2N)c(=O)oc2cc(OC(=O)N(C)C)c(Cl)cc12 [KIP-10, dimethylcarbamic acid 3-(2-aminobenzyl)-6-chloro-4-methyl-2-oxo-2H-1-benzopyran-7-yl ester] | 6 µM | sufficiently high p27 protein-inducing activity | sufficiently high p27 protein-inducing activity | 
Cc1nn(Cc2ccc(C(=O)Nc3nc4ccccc4s3)cc2)c(C)c1[N+](=O)[O-] [KIP-12] |  | sufficiently high p27 protein-inducing activity |  | sufficiently high p27 protein-inducing activity
